Measurements as given in patent US20150057350A1, “FIBROSIS BIOMARKERS AND METHODS OF USING SAME” (ABBOTT LABORATORIES, priority 2013, published 2015).

Legend:
Assay type in all cases: in vivo
[1] = system: Matrix Metalloproteinase-1 (MMP-1); experiment: 10-day bed rest study in healthy elderly subjects: circulating MMP-1 (RBM Human DiscoveryMAP, serum)
Source text: (§1) The following inclusion criteria were verified at screening: male or female ≧60 to ≦79 years of age; body mass index (BMI) ≧20 but ≦35; ambulatory with a Short Performance Physical Battery (SPPB) score of ≧9 (fully functional with no mobility limitations); and compliance with prescribed activity level. Exclusion criteria ruled out subjects who had undergone recent major surgery, had active malignancy (excepting basal or squamous cell skin carcinoma or carcinoma in situ of the uterine cervix); history of Deep Vein Thrombosis (DVT) or other hypercoagulation disorders; refractory anemia; history of diabetes or fasting blood glucose value >126 mg/dL; presence of partial or full artificial limb; kidney disease or serum creatinine >1.4 mg/dL; evidence of cardiovascular disease assessed during resting or exercise EKG; untreated hypothyroidism; liver disease; chronic or acute GI disease; uncontrolled severe diarrhea, nausea or vomiting; were actively pursuing weight loss; were enrolled in other clinical trials; could not refrain from smoking over the bed rest study period; or could not discontinue anticoagulant therapy over bed rest period. Potential subjects were also excluded if they were taking any medications known to affect protein metabolism (e.g., progestational agents, steroids, growth hormone, dronabinol, marijuana, HMB, free amino acid supplements, dietary supplements to aid weight loss).
(§2) The 24 healthy subjects initially involved in the study were randomized into two groups. Subjects in the treatment group received two β-hydroxy-β-methylbutyrate (HMB) sachets containing 1.5 grams of Ca-HMB (TSI, Salt Lake City, Utah), 4 grams of maltodextrin, and 200 milligrams of calcium with additional sweetener and flavoring agents. Subjects in the control group received two control sachets that were identical to the HMB sachets with the exclusion Ca-HMB. This study was a double-blinded study. Neither the investigators nor the subjects were informed of the identity of any of the study products during the clinical portion of the study. Subjects were instructed to consume a sachet twice daily by mixing a sachet into a non-caloric, non-caffeinated, non-carbonated, non-milk-based beverage of their choice. Treatment with HMB or Control was initiated 5 days prior to bed rest and was continued until the end of the rehabilitation period.
(§3) For diet stabilization over the pre-bed rest and bed rest periods, subjects were fed a metabolically controlled diet providing the RDA for protein intake (0.8 g protein/kg body weight per day). Total calorie needs were estimated using the Harris-Benedict equation for resting energy expenditure according to the following equation: For women=[655+(9.56×body weight in kg)+(1.85×height in cm)−(4.68×age in years)]×AF, and, For men=[66+(13.7×body weight in kg)+(5×height in cm)−([…]]×AF, where AF=activity factor of 1.6 for the ambulatory period and 1.35 for the bed rest period. Given the total calorie and protein intakes, the remainder of the diet was manipulated to keep the non-protein calories at about 60% from carbohydrates and 40% from fat. Water was provided ad libitum.
(§4) After a diet stabilization of 5 days (ambulatory period), subjects remained in bed continuously for 10 days. […] Subjects were constantly monitored by nursing staff and received a daily physical examination by the study physician. […]

[2] = system: Matrix Metalloproteinase-3 (MMP-3); experiment: 10-day bed rest study in healthy elderly subjects: circulating MMP-3 (RBM Human DiscoveryMAP, serum)
Source text: as §1, §2, §3
(§5) After a diet stabilization of 5 days (ambulatory period), subjects remained in bed continuously for 10 days. While confined to bed rest, subjects were allowed to use the bedside commode for urination or were taken in a wheelchair for toileting. Subjects were given the option of taking a sponge bath or showering in a wheelchair. Prophylactic measures were taken to detect and prevent deep vein thrombosis including a blood d-dimer test followed by an ultrasound examination if d-dimer test was positive, passive range of motion exercise during bed rest, the use of TED hose and SCD over the bed rest period. Subjects were offered medication to help mitigate reflux problems associated with being supine. Subjects were constantly monitored by nursing staff and received a daily physical examination by the study physician. […]

[3] = system: Matrix Metalloproteinase-10 (MMP-10); experiment: 10-day bed rest study in healthy elderly subjects: circulating MMP-10 (RBM Human DiscoveryMAP, serum)
Source text: as §1, §2, §3, §5

development of fibrosis = experiment: 10-day bed rest study: all 3 fibrosis markers taken together; conditions: prolonged period of physical inactivity, human subject
Source text: as §1, with “Potential subjects were also excluded if they were taking any medications known to affect protein metabolism (e.g., progestational agents, steroids, growth hormone, dronabinol, marijuana, HMB, free amino acid supplements, dietary supplements to aid weight loss).” left out
as §4

[4] = after 10 days of bed rest, 10 HMB treated subjects
[5] = post- minus pre-bed rest, 10 days, n = 10, ANCOVA vs control p < 0.0001
[6] = serum, Day 1 of bed rest, after 5 days of Ca-HMB 1.5 g sachet twice daily, n = 10
[7] = serum, end of 10 days bed rest, Ca-HMB 1.5 g sachet twice daily, n = 10

In the case of `CC(C)(O)CC(=O)O` [HMB, β-hydroxy-β-methylbutyric acid], the “average increase in circulating levels of MMP-1” value [1, 4] is reported as 2.17 ng/mL, the “MMP-1 Change” value [1, 5] is reported as 2.17 ± 1.06 ng/mL and the “effect on the increase in blood levels of MMP-1 that occurs in untreated control subjects” value ([1]; prolonged bed rest, vs control) is reported as “enhances the increase”. For the same compound, the “MMP-1 Pre-bed rest Mean” value [1, 6] was 11.29 ng/mL, the “MMP-1 Post-bed rest Mean” value [1, 7] was 13.46 ng/mL and the “average decrease in blood levels of MMP-3” value [2, 4] was 2.71 ng/mL. For the same compound, the “change (decrease) in blood levels of MMP-3” value [2, 4] was 25%, the “MMP-3 Change” value ([2]; post- minus pre-bed rest, 10 days, n = 10, ANCOVA vs control p = 0.0007) was -2.71 ± 0.78 ng/mL and the “effect on the decrease in blood levels of MMP-3 that occurs in untreated control subjects” value ([2]; prolonged bed rest, vs control) was “reduces or attenuates the decrease”. For the same compound, the “MMP-3 Pre-bed rest Mean” value [2, 6] was 10.90 ng/mL, the “MMP-3 Post-bed rest Mean” value [2, 7] was 8.19 ng/mL and the “average decrease in blood levels of MMP-10” value [3, 4] was 0.09 ng/mL. For the same compound, the “decrease in blood levels of MMP-10” value [3, 4] was 12%, the “MMP-10 Change” value [3, 5] was -0.09 ± 0.04 ng/mL and the “effect on the decrease in blood levels of MMP-10 that occurs in untreated control subjects” value ([3]; prolonged bed rest, vs control) was “reduces or attenuates the decrease”. For the same compound, the “MMP-10 Pre-bed rest Mean” value [3, 6] was 0.60 ng/mL, the “MMP-10 Post-bed rest Mean” value [3, 7] was 0.51 ng/mL and the “effect against development of fibrosis, all 3 markers taken together” value (development of fibrosis) was “protective effect”.
